# Test results from patent US9539223B2, “Methods for treating bacterial infections” (Neoculi Pty Ltd., priority 2013, dated 2017).
# Values joined by “and” are separate entries in the source; they are usually repeats but may differ in a detail not shown here. Equal entries are not always repeated.
# Tests used:
# MRSA isolates = assay: MBC test (CLSI), MRSA isolates; type: cell-based, Staphylococcus aureus
# Protocol: (§1) There was an obvious reduction in the number of bacteria with increasing concentration, but growth was present compared with no growth for S. aureus. […] Each MBC test was performed in duplicate.
# S. aureus KC01 and MK01 = assay: MBC test (CLSI), non-MRSA S. aureus isolates
# [1] = Visual analysis of solubility in diluents and media; type: physicochemical
# VRE isolates = assay: MBC test (CLSI), VRE isolates; type: cell-based, Enterococcus spp.; set-up: key: M = many bacteria growing on the plate (too many to count)
# Protocol: as §1
# [2] = Precipitation of NCL812 in assay media; type: physicochemical
# S. aureus ATCC 49775 = assay: Time-kill assays; type: cell-based, Staphylococcus aureus
# Protocol: Bactericidal activity in macrodilution assays was identified as a 3-log10 decrease from the initial inoculum size. Bacteria were cultured overnight at 37° C. on SBA. Colonies were suspended in broth and the turbidity was adjusted to a 0.5 McFarland standard to obtain a bacterial suspension of ˜10^5-CFU/ml. Bacterial suspensions were incubated at 37° C. with shaking. Aliquots were removed at 0-, 1-, 2-, 4-, 8-, 12-, and 24-h after antimicrobial addition, diluted, plated onto SBA and incubated for 48-h at 37° C. for viable count determination. Turbidimetric growth curves for S. aureus were obtained for Microtiter plate assays by monitoring optical density changes using a Bio-Rad Benchmark Plus microplate spectrophotometer at 600 nm. Optical densities were measured at 0-, 1-, 2-, 4-, 8-, 12, and 24-h after antimicrobial addition.
# S. aureus ATCC 29213 = assay: ATP release assay (CellTiter-Glo); type: cell-based, Staphylococcus aureus; settings: at the MIC ([…] μg/ml), 30 min exposure
# Text: The CellTiter-Glo Luminescent Cell Viability Assay (Promega) was utilized to measure the leakage of ATP from bacteria. […] The negative control received 2% DMSO, which represented the final DMSO concentration in each assay. […] Results were expressed as ATP concentration released to the medium (μM).
structure (smiles),measurement,setting,value
"N=C(N/N=C/c1ccc(Cl)cc1)N/N=C/c1ccc(Cl)cc1 [NCL812, 1,2-bis[(E)-(4-chlorophenyl)methylideneamino]guanidine]",MBC test: growth on Sheep Blood Agar,"MRSA isolates; MRSA 1, 4 μg/ml",0
same,MBC test: growth on Sheep Blood Agar,"MRSA isolates; MRSA 1, 8 μg/ml",0
same,MBC test: growth on Sheep Blood Agar,"MRSA isolates; MRSA 1, 16 μg/ml",0
same,MBC test: growth on Sheep Blood Agar,"MRSA isolates; MRSA 1, 32 μg/ml",0
same,MBC test: growth on Sheep Blood Agar,"MRSA isolates; MRSA 3, 4 μg/ml",0
same,MBC test: growth on Sheep Blood Agar,"MRSA isolates; MRSA 3, 16 μg/ml",0
same,MBC test: growth on Sheep Blood Agar,"MRSA isolates; MRSA 3, 32 μg/ml",0
same,MBC test: growth on Sheep Blood Agar,"MRSA isolates; MRSA 4, 4 μg/ml",0
same,MBC test: growth on Sheep Blood Agar,"MRSA isolates; MRSA 4, 8 μg/ml",0
same,MBC test: growth on Sheep Blood Agar,"MRSA isolates; MRSA 4, 16 μg/ml",0
same,MBC test: growth on Sheep Blood Agar,"MRSA isolates; MRSA 4, 32 μg/ml",0
same,MBC test: growth on Sheep Blood Agar,"MRSA isolates; MRSA 5, 4 μg/ml",0
same,MBC test: growth on Sheep Blood Agar,"MRSA isolates; MRSA 5, 8 μg/ml",0
same,MBC test: growth on Sheep Blood Agar,"MRSA isolates; MRSA 5, 16 μg/ml",0
same,MBC test: growth on Sheep Blood Agar,"MRSA isolates; MRSA 5, 32 μg/ml",0
same,MBC test: growth on Sheep Blood Agar,"MRSA isolates; MRSA 6, 4 μg/ml",0
same,MBC test: growth on Sheep Blood Agar,"MRSA isolates; MRSA 6, 8 μg/ml",0
same,MBC test: growth on Sheep Blood Agar,"MRSA isolates; MRSA 6, 16 μg/ml",0
same,MBC test: growth on Sheep Blood Agar,"MRSA isolates; MRSA 6, 32 μg/ml",0
same,MBC test: growth on Sheep Blood Agar,"MRSA isolates; MRSA 7, 4 μg/ml",0
same,MBC test: growth on Sheep Blood Agar,"MRSA isolates; MRSA 7, 16 μg/ml",0
same,MBC test: growth on Sheep Blood Agar,"MRSA isolates; MRSA 7, 32 μg/ml",0
same,MBC test: growth on Sheep Blood Agar,"MRSA isolates; MRSA 8, 8 μg/ml",0
same,MBC test: growth on Sheep Blood Agar,"MRSA isolates; MRSA 8, 16 μg/ml",0
same,MBC test: growth on Sheep Blood Agar,"MRSA isolates; MRSA 8, 32 μg/ml",0
same,MBC test: growth on Sheep Blood Agar,"MRSA isolates; MRSA 9, 4 μg/ml",0
same,MBC test: growth on Sheep Blood Agar,"MRSA isolates; MRSA 9, 8 μg/ml",0
same,MBC test: growth on Sheep Blood Agar,"MRSA isolates; MRSA 9, 16 μg/ml",0
same,MBC test: growth on Sheep Blood Agar,"MRSA isolates; MRSA 9, 32 μg/ml",0
same,MBC test: growth on Sheep Blood Agar,"MRSA isolates; MRSA 10, 4 μg/ml",0
same,MBC test: growth on Sheep Blood Agar,"MRSA isolates; MRSA 10, 8 μg/ml",0
same,MBC test: growth on Sheep Blood Agar,"MRSA isolates; MRSA 10, 16 μg/ml",0
same,MBC test: growth on Sheep Blood Agar,"MRSA isolates; MRSA 10, 32 μg/ml",0
same,MBC test: growth on Sheep Blood Agar,"MRSA isolates; MRSA 11, 8 μg/ml",0
same,MBC test: growth on Sheep Blood Agar,"MRSA isolates; MRSA 11, 16 μg/ml",0
same,MBC test: growth on Sheep Blood Agar,"MRSA isolates; MRSA 11, 32 μg/ml",0
same,MBC test: growth on Sheep Blood Agar,"MRSA isolates; MRSA 12, 4 μg/ml",0
same,MBC test: growth on Sheep Blood Agar,"MRSA isolates; MRSA 12, 16 μg/ml",0
same,MBC test: growth on Sheep Blood Agar,"MRSA isolates; MRSA 12, 32 μg/ml",0
same,MBC test: growth on Sheep Blood Agar,"MRSA isolates; MRSA 13, 4 μg/ml",0
same,MBC test: growth on Sheep Blood Agar,"MRSA isolates; MRSA 13, 8 μg/ml",0
same,MBC test: growth on Sheep Blood Agar,"MRSA isolates; MRSA 13, 16 μg/ml",0
same,MBC test: growth on Sheep Blood Agar,"MRSA isolates; MRSA 13, 32 μg/ml",0
same,MBC test: growth on Sheep Blood Agar,"MRSA isolates; MRSA 14, 4 μg/ml",0
same,MBC test: growth on Sheep Blood Agar,"MRSA isolates; MRSA 14, 8 μg/ml",0
same,MBC test: growth on Sheep Blood Agar,"MRSA isolates; MRSA 14, 16 μg/ml",0
same,MBC test: growth on Sheep Blood Agar,"MRSA isolates; MRSA 14, 32 μg/ml",0
same,MBC test: growth on Sheep Blood Agar,"MRSA isolates; MRSA 516, 4 μg/ml",0
same,MBC test: growth on Sheep Blood Agar,"MRSA isolates; MRSA 516, 8 μg/ml",0
same,MBC test: growth on Sheep Blood Agar,"MRSA isolates; MRSA 516, 16 μg/ml",0
same,MBC test: growth on Sheep Blood Agar,"MRSA isolates; MRSA 516, 32 μg/ml",0
same,MBC test: growth on Sheep Blood Agar,"MRSA isolates; MRSA 570, 4 μg/ml",0
same,MBC test: growth on Sheep Blood Agar,"MRSA isolates; MRSA 570, 8 μg/ml",0
same,MBC test: growth on Sheep Blood Agar,"MRSA isolates; MRSA 570, 16 μg/ml",0
same,MBC test: growth on Sheep Blood Agar,"MRSA isolates; MRSA 570, 32 μg/ml",0
same,MBC test: growth on Sheep Blood Agar,"MRSA isolates; MRSA 580, 4 μg/ml",0
same,MBC test: growth on Sheep Blood Agar,"MRSA isolates; MRSA 580, 8 μg/ml",0
same,MBC test: growth on Sheep Blood Agar,"MRSA isolates; MRSA 580, 16 μg/ml",0
same,MBC test: growth on Sheep Blood Agar,"MRSA isolates; MRSA 580, 32 μg/ml",0
same,MBC test: growth on Sheep Blood Agar,"MRSA isolates; MRSA 606, 4 μg/ml",0
same,MBC test: growth on Sheep Blood Agar,"MRSA isolates; MRSA 606, 8 μg/ml",0
same,MBC test: growth on Sheep Blood Agar,"MRSA isolates; MRSA 606, 16 μg/ml",0
same,MBC test: growth on Sheep Blood Agar,"MRSA isolates; MRSA 606, 32 μg/ml",0
same,MBC test: growth on Sheep Blood Agar,"MRSA isolates; MRSA 610, 4 μg/ml",0
same,MBC test: growth on Sheep Blood Agar,"MRSA isolates; MRSA 610, 16 μg/ml",0
same,MBC test: growth on Sheep Blood Agar,"MRSA isolates; MRSA 610, 32 μg/ml",0
same,MBC test: growth on Sheep Blood Agar,"S. aureus KC01 and MK01; S. aureus KC01, 2 μg/ml",+
same,MBC test: growth on Sheep Blood Agar,"S. aureus KC01 and MK01; S. aureus KC01, 4 μg/ml",0 and +
same,MBC test: growth on Sheep Blood Agar,"S. aureus KC01 and MK01; S. aureus KC01, 8 μg/ml",0 and +
same,MBC test: growth on Sheep Blood Agar,"S. aureus KC01 and MK01; S. aureus KC01, 16 μg/ml",0
same,MBC test: growth on Sheep Blood Agar,"S. aureus KC01 and MK01; S. aureus KC01, 32 μg/ml",0
same,MBC test: growth on Sheep Blood Agar,"S. aureus KC01 and MK01; S. aureus KC01, 64 μg/ml",0
same,MBC test: growth on Sheep Blood Agar,"S. aureus KC01 and MK01; S. aureus KC01, […]",0
same,MBC test: Number of Bacteria Growing after 24 hours per ml of sample,"S. aureus KC01 and MK01; S. aureus MK01, 2 μg/ml",5 CFU/ml
same,MBC test: growth on Sheep Blood Agar,"S. aureus KC01 and MK01; S. aureus MK01, 2 μg/ml",0
same,MBC test: growth on Sheep Blood Agar,"S. aureus KC01 and MK01; S. aureus MK01, 4 μg/ml",0
same,MBC test: growth on Sheep Blood Agar,"S. aureus KC01 and MK01; S. aureus MK01, 8 μg/ml",0
same,MBC test: growth on Sheep Blood Agar,"S. aureus KC01 and MK01; S. aureus MK01, 16 μg/ml",0 (N) and 0
same,MBC test: growth on Sheep Blood Agar,"S. aureus KC01 and MK01; S. aureus MK01, 32 μg/ml",0 (N) and 0
same,MBC test: growth on Sheep Blood Agar,"S. aureus KC01 and MK01; S. aureus MK01, 64 μg/ml",0 (N) and 0
same,solubility,[1]; DMSO,soluble
same,appearance when dissolved,[1]; cation-adjusted Mueller-Hinton II broth (CAMHB),cloudy solution
same,visual solubility,[1]; diluent CAMHB,Turbid
same,visual solubility,[1]; diluent DMSO,Transparent
same,visual solubility,[1]; diluent PBS,Precipitate
same,visual solubility,[1]; media 4% LHB:CAMHB,Turbid
same,visual solubility,[1]; media 10% horse serum-supplemented broth,Precipitate
same,MBC test: bacteria growing after 24 hours per ml of sample,"VRE isolates; VRE 12c, 64 μg/ml",M
same,MBC test: bacteria growing after 24 hours per ml of sample,"VRE isolates; VRE 12c, […]",M
same,MBC test: bacteria growing after 24 hours per ml of sample,"VRE isolates; VRE 14t, […]",M
same,MBC test: bacteria growing after 24 hours per ml of sample,"VRE isolates; VRE 16c(dc), 64 μg/ml",M
same,MBC test: bacteria growing after 24 hours per ml of sample,"VRE isolates; VRE 16c(dc), […]",M
same,MBC test: bacteria growing after 24 hours per ml of sample,"VRE isolates; VRE 16c, 64 μg/ml",M
same,MBC test: bacteria growing after 24 hours per ml of sample,"VRE isolates; VRE 16c, […]",M
same,MBC test: bacteria growing after 24 hours per ml of sample,"VRE isolates; VRE 19t, […]",M
same,MBC test: bacteria growing after 24 hours per ml of sample,"VRE isolates; VRE 23c, 64 μg/ml",M
same,MBC test: bacteria growing after 24 hours per ml of sample,"VRE isolates; VRE 23c, […]",M
same,MBC test: bacteria growing after 24 hours per ml of sample,"VRE isolates; VRE 25c, 64 μg/ml",M
same,MBC test: bacteria growing after 24 hours per ml of sample,"VRE isolates; VRE 25c, […]",M
same,MBC test: bacteria growing after 24 hours per ml of sample,"VRE isolates; VRE 26c(dc), 64 μg/ml",M
same,MBC test: bacteria growing after 24 hours per ml of sample,"VRE isolates; VRE 26c(dc), […]",M
same,Precipitation of NCL812 observed at,[2]; MIC plates in Mueller Hinton II Broth without inoculum,≥ 8 µg/mL
same,precipitation observed at,"[2]; Mueller Hinton broth II (DNA and RNA synthesis assays), MIC […] μg/ml",4 to 8 fold the MIC
same,growth in microdilution assay,"S. aureus ATCC 49775; 1× and 4× the MIC, up to 24-h",no visible bacterial growth
same,remained bactericidal until,"S. aureus ATCC 49775; 10-ml macrodilution, 1× and 4× the MIC, after antimicrobial addition",8 to 12 h
same,bacterial regrowth observed at,S. aureus ATCC 49775; after antimicrobial addition,12 h
same,susceptibility of test bacteria after time-kill exposure,"S. aureus ATCC 49775; following harvesting, washing and MIC testing",remained susceptible
same,maximal release of ATP,S. aureus ATCC 29213,0.33 µM
